Experimental findings from DBAASP are described below.

Common to all, as to experiment: ≥ marks a high value that may be exact or a test limit, other limits are often not marked, values filed in µg/mL are converted to µM
In assay [1] the test system is Escherichia coli NCTC 10418.
Assay [2] relates to Microsporum canis MW768151.
Assay [3] relates to Microsporum canis.
Assay [4] relates to Proteus mirabilis.
The test system of assay [5] is Pseudomonas aeruginosa ATCC 27853.
Assay [6] deals with Staphylococcus aureus ATCC 43300.
Assay [7] relates to Staphylococcus aureus NCTC 10788.
Assay [8] relates to Staphylococcus aureus NCTC 12493.
Assay [9] has as its system Staphylococcus aureus.
Assay [10] has as its system Staphylococcus cohnii MW767053.
The test system of assay [11] is Staphylococcus haemolyticus.
For assay [12], the system named is Staphylococcus pseudintermedius MW767056.
The test system of assay [13] is Staphylococcus pseudintermedius.
Assay [14] deals with Staphylococcus sciuri.
Assay [15] deals with Staphylococcus simulans.
Assay [16] concerns Trichophyton mentagrophytes.
Assay [17] relates to Candida albicans ATCC 14053.
The test system of assay [18] is Escherichia coli ATCC 11775.
Assay [19] has as its system Micrococcus luteus ATCC 49732.
For assay [20], the system named is Staphylococcus aureus ATCC 12600.
Assay [21] relates to Streptococcus sanguinis.
The test system of assay [22] is Escherichia coli 1.
In assay [23] the test system is Escherichia coli.
The test system of assay [24] is Pseudomonas aeruginosa 1.
Assay [25] relates to Pseudomonas aeruginosa.
Assay [26] has as its system Enterococcus faecalis ATCC 29212.
For assay [27], the system named is Escherichia coli 1057.
For assay [28], the system named is Escherichia coli 214.
In assay [29] the test system is Escherichia coli BL21(DE3).
Assay [30] concerns Escherichia coli C600.

Converted amounts (≈) assume the structure as drawn. “And” between values parts separate entries of the source, which are not always exact repeats. Identical values can stand only once. A value given as a limit tells only on which side of the number the result lay.

A word on the MIC: it is the least concentration at which growth counts as inhibited. Low readings indicate a more susceptible organism, high ones a less susceptible organism. Regarding `CC[C@H](C)[C@H](NC(=O)CNC(=O)[C@H](CO)NC(=O)[C@H](CC(C)C)NC(=O)[C@H](CC(C)C)NC(=O)CN)C(=O)N[C@@H](CC(C)C)C(=O)NCC(=O)N[C@@H](C)C(=O)NCC(=O)N[C@@H](CCCCN)C(=O)N[C@@H](CCCCN)C(=O)N[C@H](C(=O)N[C@H](C(=O)N[C@@H](Cc1ccccc1)C(N)=O)C(C)C)[C@@H](C)CC` [GLLSGILGAGKKIVF], the MIC in [1] was 7.99 µM (≈ 11.8 µg/mL); in assay [2], 0.679 µM (≈ 0.999 µg/mL); in [3], 1.92 µM (≈ 2.83 µg/mL); in assay [4] it was at least 43.5 µM; in [5], 2 µM (≈ 2.94 µg/mL); in [6], 0.998 µM (≈ 1.47 µg/mL). Also, the MIC in assay [7] was 2 µM (≈ 2.94 µg/mL); in assay [8], 4 µM (≈ 5.89 µg/mL); in [9], 0.998 µM (≈ 1.47 µg/mL); in assay [10], at least 86.9 µM; in assay [11], at least 43.5 µM; in [12], at least 174 µM. In addition, the MIC in [13] is at least 61.5 µM; in assay [14], at least 174 µM; in assay [15], 10.9 µM (≈ 16 µg/mL); in assay [16], 1.36 µM (≈ 2 µg/mL).
As to `CC(C)C[C@H](NC(=O)[C@H](Cc1cnc[nH]1)NC(=O)[C@@H](N)C(C)C)C(=O)N1CCC[C@H]1C(=O)N1CCC[C@H]1C(=O)O` [VHLPP], the MIC in [17], in assay [18], in [19] and in assay [20] was at least 479 µM each time.
In the case of `NC(=O)[C@H](Cc1ccccc1)NC(=O)[C@H](Cc1ccccc1)NC(=O)[C@H](Cc1ccccc1)NC(=O)[C@H](Cc1ccccc1)NC(=O)[C@H](Cc1ccccc1)NC(=O)[C@H](Cc1ccccc1)NC(=O)[C@H](Cc1ccccc1)NC(=O)[C@@H](N)Cc1ccccc1` [FFFFFFFF], the figures for the MIC in assay [9] and in assay [21] were 5.8 µM (≈ 6.92 µg/mL) and 7.1 µM (≈ 8.48 µg/mL), respectively.
Take `CC[C@H](C)[C@H](NC(=O)[C@@H](NC(=O)[C@@H]1CCCN1C(=O)[C@H](CO)NC(=O)[C@@H]1CSSC[C@H](NC(=O)[C@H](CCCCN)NC(=O)[C@H](CCCCN)NC(=O)CNC(=O)CNC(=O)CNC(=O)CN)C(=O)N[C@@H](CCCCN)C(=O)N[C@@H](CCCCN)C(=O)N[C@@H](CC(C)C)C(=O)N[C@@H](Cc2ccccc2)C(=O)N[C@@H](CCCCN)C(=O)N[C@@H](CCCCN)C(=O)N1)C(C)C)C(=O)N1CCC[C@H]1C(=O)N[C@@H](CC(C)C)C(=O)N[C@@H](CC(C)C)C(=O)N[C@@H](Cc1cnc[nH]1)C(=O)N[C@@H](CC(C)C)C(=O)NCC(=O)O` [GGGGKKCKKLFKKCSPVIPLLHLG]: the minimum inhibitory concentration (MIC) in assay [22] was determined as 2.7 µM (≈ 6.77 µg/mL); in assay [23], 1.3 µM (≈ 3.26 µg/mL); in assay [24] it was 27 µM (≈ 67.7 µg/mL); in [25], 16 µM (≈ 40.1 µg/mL).
Take `CC(C)C[C@H](NC(=O)[C@H](CCCN=C(N)N)NC(=O)[C@@H](N)CCCN=C(N)N)C(=O)N[C@@H](CCCN=C(N)N)C(=O)N1CCC[C@H]1C(=O)N[C@@H](CCCN=C(N)N)C(=O)N[C@@H](CCCN=C(N)N)C(=O)N1CCC[C@H]1C(=O)N[C@@H](CCCN=C(N)N)C(=O)N[C@@H](CC(C)C)C(=O)N1CCC[C@H]1C(=O)N[C@@H](CCCN=C(N)N)C(=O)N1CCC[C@H]1C(=O)N[C@@H](CCCN=C(N)N)C(=O)N1CCC[C@H]1C(=O)N[C@@H](CCCN=C(N)N)C(=O)N1CCC[C@H]1C(=O)N[C@@H](CCCN=C(N)N)C(=O)N1CCC[C@H]1C(=O)N[C@@H](CCCN=C(N)N)C(=O)N1CCC[C@H]1C(=O)N[C@@H](CCCN=C(N)N)C(=O)O` [RRLRPRRPRLPRPRPRPRPRPR]: the minimum inhibitory concentration (MIC) in [26] is above 32 µM; in assay [27] it was 10 µM and 8 µM; in assay [28] it was at least 64 µM; in assay [29] it was 8 µM (≈ 23.2 µg/mL); in assay [30], 2 µM and 4 µM.
